Common to all, as to format: biochemical
One experiment concerns the target T1, human Yes1 enzyme (Homo sapiens, UniProt P07947).
T1 construct: made in house
Description: Yes1 enzyme inhibitory activity (time-resolved fluorometry, biotinylated peptide phosphorylation). The settings on record: read-out: YES_IC50. The method, boiled down:
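Inhibition was expressed against a compound-free control to give IC50, using TR-FRET read-out (Eu-cryptate anti-pTyr antibody, streptavidin-XL665).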

Another experiment addresses T2, human Src enzyme (Homo sapiens, UniProt P12931).
T2 construct: purchased Carna Biosciences, Inc. 08-173
Description: Src enzyme inhibitory activity (time-resolved fluorometry, biotinylated peptide phosphorylation). The settings on record: read-out: SRC_IC50. The method, boiled down: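 Compounds were tested for blocking tyrosine phosphorylation of a biotinylated peptide substrate by recombinant human Src. Phosphorylated product was quantified by time-resolved fluorometry using europium cryptate and XL665 conjugates, and IC50 was calculated against the compound-free control.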

A further experiment has as its target T3, human Lck enzyme (Homo sapiens, UniProt P06239).
T3 construct: purchased Carna Biosciences, Inc. 08-170
Description: Lck enzyme inhibitory activity (time-resolved fluorometry, biotinylated peptide phosphorylation). The settings on record: read-out: LCK_IC50. The method, boiled down: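 Readout pairs a europium cryptate-labelled anti-phosphotyrosine antibody with XL665-streptavidin, measured by time-resolved fluorescence. IC50 derived from percent inhibition against untreated controls.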

Where [1] appears, read: biotinylated peptide phosphorylation.

The values that follow come from patent US10479780B2, “Aminopyrazole derivatives” (Chugai Seiyaku Kabushiki Kaisha, priority 2015, dated 2019).

Like-named read-outs stand apart in the source and are kept apart here.

T1 sequence (P07947 whole entry): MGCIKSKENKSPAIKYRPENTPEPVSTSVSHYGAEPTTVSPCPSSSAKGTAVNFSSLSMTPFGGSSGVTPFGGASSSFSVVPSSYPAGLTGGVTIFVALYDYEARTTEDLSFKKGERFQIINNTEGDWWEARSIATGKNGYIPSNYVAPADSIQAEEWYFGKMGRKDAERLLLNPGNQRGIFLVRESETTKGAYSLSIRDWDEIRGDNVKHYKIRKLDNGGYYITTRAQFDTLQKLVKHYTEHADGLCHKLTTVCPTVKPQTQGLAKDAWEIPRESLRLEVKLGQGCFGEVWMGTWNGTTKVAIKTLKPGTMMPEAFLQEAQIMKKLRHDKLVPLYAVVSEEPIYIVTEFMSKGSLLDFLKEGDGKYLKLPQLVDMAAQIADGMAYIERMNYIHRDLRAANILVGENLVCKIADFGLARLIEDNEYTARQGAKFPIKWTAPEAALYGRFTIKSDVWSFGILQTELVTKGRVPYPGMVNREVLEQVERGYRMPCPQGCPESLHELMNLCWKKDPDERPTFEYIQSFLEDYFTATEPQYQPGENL
T3 sequence (P06239 whole entry): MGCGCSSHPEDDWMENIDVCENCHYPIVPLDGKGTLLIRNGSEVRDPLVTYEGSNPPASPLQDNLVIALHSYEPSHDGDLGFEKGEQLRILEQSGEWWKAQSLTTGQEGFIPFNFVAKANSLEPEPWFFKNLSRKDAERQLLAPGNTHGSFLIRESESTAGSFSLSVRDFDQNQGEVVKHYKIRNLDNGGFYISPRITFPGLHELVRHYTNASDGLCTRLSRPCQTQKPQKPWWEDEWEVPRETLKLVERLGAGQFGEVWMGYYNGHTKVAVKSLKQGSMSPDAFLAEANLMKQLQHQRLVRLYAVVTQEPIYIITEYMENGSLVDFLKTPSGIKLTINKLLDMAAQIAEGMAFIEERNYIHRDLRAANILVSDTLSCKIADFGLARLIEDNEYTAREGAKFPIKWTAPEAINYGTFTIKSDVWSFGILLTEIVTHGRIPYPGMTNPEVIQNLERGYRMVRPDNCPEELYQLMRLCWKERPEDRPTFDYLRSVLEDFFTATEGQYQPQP
T2 sequence (P12931 whole entry): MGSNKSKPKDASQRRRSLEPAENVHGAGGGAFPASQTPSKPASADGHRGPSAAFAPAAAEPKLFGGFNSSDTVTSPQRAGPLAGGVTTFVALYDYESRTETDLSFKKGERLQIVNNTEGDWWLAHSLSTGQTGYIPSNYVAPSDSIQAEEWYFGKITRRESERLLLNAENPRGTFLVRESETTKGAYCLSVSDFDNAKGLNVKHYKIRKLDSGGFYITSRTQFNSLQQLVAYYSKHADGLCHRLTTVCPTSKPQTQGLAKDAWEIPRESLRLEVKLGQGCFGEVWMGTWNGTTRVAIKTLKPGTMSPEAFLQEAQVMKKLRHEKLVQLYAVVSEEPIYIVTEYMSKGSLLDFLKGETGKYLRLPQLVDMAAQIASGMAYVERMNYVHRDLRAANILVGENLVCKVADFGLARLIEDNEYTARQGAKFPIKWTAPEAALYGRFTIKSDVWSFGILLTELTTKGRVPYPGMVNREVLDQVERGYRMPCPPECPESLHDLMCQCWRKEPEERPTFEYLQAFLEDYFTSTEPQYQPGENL

For the compound `Cc1cc(Oc2ccccc2F)ncc1-n1ncc(C(=O)c2cc3cc(F)c(N4CC(C)(C)NS4(=O)=O)cc3[nH]2)c1N` [Example 5-1-421, [5-amino-1-[6-(2-fluorophenoxy)-4-methylpyridin-3-yl]pyrazol-4-yl]-[6-(4,4-dimethyl-1,1-dioxo-1,2,5-thiadiazolidin-2-yl)-5-fluoro-1H-indol-2-yl]methanone], the figures for the IC50 on human Yes1 enzyme (setting [1]), at human Src enzyme (setting [1]) and at human Lck enzyme (setting [1]) were 1.1 nM, 84 nM and 17 nM, respectively.

With `COc1cc2cc(C(=O)c3cnn(-c4cnc(Oc5c(F)cccc5F)cc4C)c3N)[nH]c2cc1N1CCCS1(=O)=O` [Example 4-2-121, [5-amino-1-[6-(2,6-difluorophenoxy)-4-methylpyridin-3-yl]pyrazol-4-yl]-[6-(1,1-dioxo-1,2-thiazolidin-2-yl)-5-methoxy-1H-indol-2-yl]methanone], the figures for the IC50 at human Yes1 enzyme (setting [1]), on human Src enzyme (setting [1]) and at human Lck enzyme (setting [1]) were 0.54 nM, 8 nM and 2.1 nM, respectively.

With `Cc1cc2cc(C(=O)c3cnn(-c4ccc(Oc5ccccc5F)c(F)c4)c3N)[nH]c2cc1NS(C)(=O)=O` [Example 5-1-198, N-[2-[5-amino-1-[3-fluoro-4-(2-fluorophenoxy)phenyl]pyrazole-4-carbonyl]-5-methyl-1H-indol-6-yl]methanesulfonamide], the IC50 at human Yes1 enzyme came to 1.5 nM; at human Src enzyme it was 270 nM; at human Lck enzyme, 36 nM.

Take `Cc1cc(Oc2c(F)cccc2F)ncc1-n1ncc(C(=O)c2cc3cc(F)c(N4C(=O)NC5(CCOCC5)C4=O)cc3[nH]2)c1N` [Example 5-1-368, 3-[2-[5-amino-1-[6-(2,6-difluorophenoxy)-4-methylpyridin-3-yl]pyrazole-4-carbonyl]-5-fluoro-1H-indol-6-yl]-8-oxa-1,3-diazaspiro[4.5] decane-2,4-dione]: the figures for the IC50 at human Yes1 enzyme, on human Src enzyme and on human Lck enzyme were 3.8 nM, 62 nM and 8.7 nM, respectively.

Turning to `Cc1cc(Oc2ccccc2F)ccc1-n1ncc(C(=O)c2cc3cc(OC4CCN(C(C)C)CC4)c(N4CCN(S(C)(=O)=O)CC4)cc3[nH]2)c1N` [Example 5-1-191, [5-amino-1-[4-(2-fluorophenoxy)-2-methylphenyl]pyrazol-4-yl]-[6-(4-methylsulfonylpiperazin-1-yl)-5-(1-propan-2-ylpiperidin-4-yl)oxy-1H-indol-2-yl]methanone], the IC50 on human Yes1 enzyme stood at 0.48 nM; at human Src enzyme, 2.2 nM; on human Lck enzyme it was 1.6 nM.

With `Cc1cc2cc(C(=O)c3cnn(-c4cnc(Oc5c(F)cccc5F)cc4C)c3N)[nH]c2cc1N1C(=O)NC2(CCOCC2)C1=O` [Example 5-1-342, 3-[2-[5-amino-1-[6-(2,6-difluorophenoxy)-4-methylpyridin-3-yl]pyrazole-4-carbonyl]-5-methyl-1H-indol-6-yl]-8-oxa-1,3-diazaspiro[4.5] decane-2,4-dione], the figures for the IC50 at human Yes1 enzyme, on human Src enzyme and at human Lck enzyme were 1.7 nM, 48 nM and 5.3 nM, respectively.

With `Cc1cc2cc(C(=O)c3cnn(-c4cnc(Oc5c(F)cccc5F)cc4C)c3N)[nH]c2cc1N1C(=O)NC2(CCC2)C1=O` [Example 5-1-341, 7-[2-[5-amino-1-[6-(2,6-difluorophenoxy)-4-methylpyridin-3-yl]pyrazole-4-carbonyl]-5-methyl-1H-indol-6-yl]-5,7-diazaspiro[3.4]octane-6,8-dione], the IC50 was determined as 2.7 nM on human Yes1 enzyme, 53 nM at human Src enzyme and 7.4 nM at human Lck enzyme.

As for `Cc1cc(Oc2ccccc2F)ncc1-n1ncc(C(=O)c2cc3cc(OC(F)F)c(N4CCCC4=O)cc3[nH]2)c1N` [Example 4-25-014, 1-[2-[5-amino-1-[6-(2-fluorophenoxy)-4-methylpyridin-3-yl]pyrazole-4-carbonyl]-5-(difluoromethoxy)-1H-indol-6-yl]pyrrolidin-2-one], the values for the IC50 at human Yes1 enzyme (setting [1]), at human Src enzyme (setting [1]) and at human Lck enzyme (setting [1]) were 1.1 nM, 26 nM and 2.2 nM, respectively.

Turning to `Cc1cc(Oc2ccccc2F)ccc1-n1ncc(C(=O)c2cc3cc(OCC(F)F)c(N4C(=O)NC5(CCN(C6COC6)CC5)C4=O)cc3[nH]2)c1N` [Example 5-1-272, 3-[2-[5-amino-1-[4-(2-fluorophenoxy)-2-methylphenyl]pyrazole-4-carbonyl]-5-(2,2-difluoroethoxy)-1H-indol-6-yl]-8-(oxetan-3-yl)-1,3,8-triazaspiro[4.5]decane-2,4-dione], the IC50 at human Yes1 enzyme was 0.65 nM; on human Src enzyme, 7.8 nM; at human Lck enzyme it was 4.2 nM.

Consider `Cc1cc(Oc2ccccc2F)ccc1-n1ncc(C(=O)c2cc3cc(N4CCOCC4)c(N4CCCC4=O)cc3[nH]2)c1N` [Example 5-1-105, 1-[2-[5-amino-1-[4-(2-fluorophenoxy)-2-methylphenyl]pyrazole-4-carbonyl]-5-morpholin-4-yl-1H-indol-6-yl]pyrrolidin-2-one], for which the IC50 on human Yes1 enzyme worked out at 0.77 nM; on human Src enzyme, 3.6 nM; at human Lck enzyme, 1.6 nM.

Regarding `Cc1cc2cc(C(=O)c3cnn(-c4cnc(Oc5c(F)cccc5F)cc4C)c3N)[nH]c2cc1NS(=O)(=O)c1cncc(F)c1` [Example 5-1-546, N-[2-[5-amino-1-[6-(2,6-difluorophenoxy)-4-methylpyridin-3-yl]pyrazole-4-carbonyl]-5-methyl-1H-indol-6-yl]-5-fluoropyridine-3-sulfonamide], the IC50 on human Yes1 enzyme (setting [1]) stood at 6.1 nM; at human Src enzyme (setting [1]), 680 nM; at human Lck enzyme (setting [1]) it was 78 nM.

Turning to `Cc1cc2cc(C(=O)c3cnn(-c4cnc(Oc5ccccc5F)cc4C)c3N)[nH]c2cc1NS(=O)(=O)c1cccc(F)c1` [Example 5-1-500, N-[2-[5-amino-1-[6-(2-fluorophenoxy)-4-methylpyridin-3-yl]pyrazole-4-carbonyl]-5-methyl-1H-indol-6-yl]-3-fluorobenzenesulfonamide], the IC50 on human Yes1 enzyme (setting [1]) is 5.7 nM; at human Src enzyme (setting [1]), 750 nM; on human Lck enzyme (setting [1]) it was 200 nM.

Regarding `CC(=O)N1CCC(c2cc3[nH]c(C(=O)c4cnn(-c5cnc(Oc6c(F)cccc6F)cc5C)c4N)cc3cc2OCC(F)F)CC1` [Example 4-17-001, 1-{4-{2-{5-amino-1-{6-(2,6-difluorophenoxy)-4-methylpyridin-3-yl}pyrazole-4-carbonyl}-5-(2,2-difluoroethoxy)-1H-indol-6-yl}piperidin-1-yl}ethanone], the figures for the IC50 at human Yes1 enzyme (setting [1]), at human Src enzyme (setting [1]) and on human Lck enzyme (setting [1]) were 4.5 nM, 26 nM and 12 nM, respectively.

Take `Cc1cc(Oc2ccccc2F)ccc1-n1ncc(C(=O)c2cc3cc(F)c(N4CCCC4=O)cc3[nH]2)c1N` [Example 5-1-103, 1-[2-[5-amino-1-[4-(2-fluorophenoxy)-2-methylphenyl]pyrazole-4-carbonyl]-5-fluoro-1H-indol-6-yl]pyrrolidin-2-one]: the IC50 on human Yes1 enzyme worked out at 0.38 nM; at human Src enzyme, 5.2 nM; on human Lck enzyme it was 1.1 nM.

Take `Cc1cnc(F)c(S(=O)(=O)Nc2cc3[nH]c(C(=O)c4cnn(-c5cnc(Oc6c(F)cccc6F)cc5C)c4N)cc3cc2OCC(F)F)c1` [Example 5-1-571, N-[2-[5-amino-1-[6-(2,6-difluorophenoxy)-4-methylpyridin-3-yl]pyrazole-4-carbonyl]-5-(2,2-difluoroethoxy)-1H-indol-6-yl]-2-fluoro-5-methylpyridine-3-sulfonamide]: the values for the IC50 at human Yes1 enzyme (setting [1]), at human Src enzyme (setting [1]) and on human Lck enzyme (setting [1]) were 2.2 nM, 540 nM and 30 nM, respectively.
